In article PMC3818835, “What Goes around Comes around-A Comparative Study of the Influence of Chemical Modifications on the Antimicrobial Properties of Small Cyclic Peptides” (Pharmaceuticals, 2013):
Converted amounts (≈) assume the structure as drawn. Numbered stars: 1 amine (or outer) side, 2 acyl side, 3 side chain; on linkers, the order of the positions; unused ones are H or OH. Square brackets hold non-standard residues; d marks the D form. Peptide text beside a SMILES is read from it. * marks the point of attachment. 6FAM = O=C1OC2(c3ccc(O)cc3Oc3cc(O)ccc32)c2cc(C(=O)*)ccc21; X1 = COc1ccc2c(CC(N[*:1])C(=O)[*:2])cc(=O)oc2c1; NBD = O=[N+]([O-])c1ccc(*)c2nonc12; X2 = O=c1cc(C*)c2cc(Br)c(O)cc2o1; Dap = NC[C@H](N)C(=O)O

Key:
E. coli DH5α [1] = assay type: cell-based; settings: 18 h
Description: (§1) The minimal inhibitory concentration (MIC) of the cyclic hexapeptides was tested against Gram-negative E. coli DH5α and Gram-positive B. subtilis DSM 347 using a microdilution technique in 96 well microtiter plates as described previously. Briefly, cells from an overnight culture were inoculated 1:100 in LB medium, grown to mid log phase (OD600 0.4 ± 0.1) and adjusted to 5 × 10^5 cells/well. Final peptide concentrations ranged from 0.05 µM to 100 µM (2-fold dilutions) and were tested in triplicates in at least three independent experiments. The MIC was determined after 18 h of incubation at 37 °C, 180 rpm being the lowest peptide concentration at which no visible bacterial growth can be detected photometrically (A600, Safire Microplate Reader, Tecan, Männedorf, Germany).

B. subtilis DSM 347 [2] = assay type: cell-based; settings: DSM 347, 18 h
Description: as §1

[3] = Hydrophobicity: retention time tR by reversed phase HPLC; assay type: physicochemical; settings: chromatographic, RP-HPLC ProntoSil 300-5-C18-H (250 × 4.6 mm, 5 µm); peptide 1 mg/mL in phase A (0.1% TFA in water); B 0.1% TFA in 80% acetonitrile; linear gradient 5%–95% B over 40 min at 22 °C; used as a measure of hydrophobicity
Description: The retention time tR of the cyclic hexapeptides was determined by HPLC on a Jasco LC-2000Plus using a ProntoSil 300-5-C18-H column (250 × 4.6 mm, 5 µm) (Bischoff Chromatography). Peptide concentration was 1 mg/mL in mobile phase A (0.1% TFA in deionized water), mobile phase B consisted of 0.1% TFA in 80% acetonitrile in deionized water. For chromatographic analyses a linear gradient of 5%–95% phase B over 40 min at 22 °C was applied.
To investigate the influence of fluorescent label modification and amino acid substitution on the hydrophobicity/amphipathicity of the cyclic hexapeptide derivatives, we determined the retention time tR by reversed phase HPLC (Figure 2). The method monitors the retention of compounds by the hydrophobic HPLC stationary phase. Differences in tR reflect differences in the effective hydrophobicity of the molecule which is related to the intrinsic hydrophobicity of the individual residues and their ability to form hydrophobic domains for interaction with the HPLC matrix. At the same time, hydrophilic residues will locate at the opposite side of the molecule. Reduction in the size or positioning of cationic residues next to the hydrophobic molecular surface area would reduce amphipathicity. tR-measurements have successfully been applied to characterize amphipathic helices, β-structured peptides and different sets of our small cyclic R-, W-rich peptides.

human erythrocytes = assay type: cell-based; settings: pH 7.4
Description: The lytic effect of selected peptides upon human erythrocytes was determined as described before. Briefly, cells were washed thoroughly in Tris buffer (10 mM Tris, 150 mM NaCl, pH 7.4). Suspensions with 2.5 × 10^8 cells/mL were incubated with peptides at a final concentration of 100 µM for 30 min at 37 °C. After centrifugation, 0.6% NH4OH was added to an aliquot of the supernatant and hemoglobin absorption (A) was measured at 540 nm (Jasco V-550). Whole cell suspensions exposed to NH4OH were used as positive control (A100%) and preparations without peptide served as negative control (A0%), respectively. Data were collected in three independent experiments.

E. coli DH5α [4] = assay: Propidium iodide influx (membrane permeabilisation), flow cytometry; assay type: cell-based; settings: FACS, PI 10 µg/mL, peptide at respective MIC, LB, 5 × 10^5 cells/mL, 0-90 min at 37 °C
Description: (§2) Membrane permeabilisation was determined by fluorescence activated cell sorting (FACS) on a FACSCalibur (Becton Dickinson) equipped with a 488 nm argon laser. Propidium iodide (PI, 10 µg/mL) and peptides at a final concentration corresponding to the respective MIC were dissolved in LB. Cells were grown to mid log phase (OD600 0.4 ± 0.1) and added to the solution just before the measurement at a concentration of 5 × 10^5 cells/mL. Cells were sorted on the basis of PI fluorescence which increases upon intercalation with DNA. This can only be observed in the case of disturbed membrane integrity as PI cannot translocate across intact lipid bilayers. Cell fluorescence was measured after incubation time points of 0, 5, 10, 15, 20, 30, 60 and 90 min at 37 °C, 180 rpm. A minimum of 20,000 cells was recorded for each preparation. CellQuest^TM Pro software (Becton Dickinson) was used for data acquisition and results were analyzed with FCS Express V3 (De Novo Software, Los Angeles, CA, USA).

B. subtilis DSM 347 [5] = assay: as above; assay type: cell-based; settings: FACS, PI 10 µg/mL, peptide at respective MIC, LB, 5 × 10^5 cells/mL, 0-90 min at 37 °C
Description: as §2

E. coli DH5α [6] = settings: 5 µM, PI influx; cited from earlier work
Description: (§3) Figure 4 Bacterial membrane permeabilisation determined with flow cytometry using propidium iodide (PI). PI influx after incubation with cWFW, fluorescent-labeled and K-substituted cyclic hexapeptides was tested into B. subtilis DSM 347 (A,C) and E. coli DH5α (B,D) at respective MICs. […] Preparations without peptide were used as negative co ...

B. subtilis DSM 347 [7] = settings: 5 µM, PI influx; cited from earlier work
Description: as §3

Molecule	MIC E. coli DH5α (E. coli DH5α [1])	MIC B. subtilis DSM 347 (B. subtilis DSM 347 [2])	Retention Time tR [3]	Hemolysis at 100 µM (human erythrocytes)	PI influx / membrane permeabilisation, E. coli (E. coli DH5α [4])	PI influx / membrane permeabilisation, B. subtilis (B. subtilis DSM 347 [5])	Membrane permeabilising potential, Gram-negative cells (positive control) (E. coli DH5α [6])	Membrane permeabilising potential, Gram-positive cells (positive control) (B. subtilis DSM 347 [7])
COc1ccc2c(CC3NC(=O)[C@H](Cc4c[nH]c5ccccc45)NC(=O)[C@H](CCCCN)NC(=O)[C@H](CCCNC(=N)N)NC(=O)[C@H](CCCCN)NC(=O)[C@H](Cc4c[nH]c5ccccc45)NC3=O)cc(=O)oc2c1 (stereo partly shown) [cR2[Cu]] (cyclo(KRKW[X1]W))	50 µM (≈ 51.5 µg/mL)	6 µM (≈ 6.18 µg/mL)	17.20 min	4%	pronounced membrane disruption			
N=C(N)NCCC[C@@H]1NC(=O)[C@H](CCCCN)NC(=O)[C@H](Cc2c[nH]c3ccccc23)NC(=O)[C@H](CSCc2cc(=O)oc3cc(O)c(Br)cc23)NC(=O)[C@H](Cc2c[nH]c3ccccc23)NC(=O)[C@H](CCCCN)NC1=O [cR2[S-Cu]] (cyclo(KRKWC(X2)W))	50 µM (≈ 57.1 µg/mL)	25 µM (≈ 28.5 µg/mL)	17.49 min	5%				
N=C(N)NCCC[C@@H]1NC(=O)[C@H](CCCCN)NC(=O)[C@H](CCCNC(=N)N)NC(=O)[C@H](Cc2c[nH]c3ccccc23)NC(=O)[C@H](Cc2ccccc2)NC(=O)[C@H](Cc2c[nH]c3ccccc23)NC1=O [cRKR] (cyclo(RKRWFW))	50 µM (≈ 48 µg/mL)	12 µM (≈ 11.5 µg/mL)	18.60 min	4%				
COc1ccc2c(CC3NC(=O)[C@H](Cc4c[nH]c5ccccc45)NC(=O)[C@H](CCCNC(=N)N)NC(=O)[C@H](CCCNC(=N)N)NC(=O)[C@H](CCCNC(=N)N)NC(=O)[C@H](Cc4c[nH]c5ccccc45)NC3=O)cc(=O)oc2c1 (stereo partly shown) [cW[Cu]W] (cyclo(RRRW[X1]W))	25 µM (≈ 27.2 µg/mL)	6 µM (≈ 6.52 µg/mL)	18.40 min	23%	pronounced membrane disruption	slightly higher		
N=C(N)NCCC[C@@H]1NC(=O)[C@H](CCCNC(=N)N)NC(=O)[C@H](CCCCNC(=O)c2ccc3c(c2)C2(OC3=O)c3ccc(O)cc3Oc3cc(O)ccc32)NC(=O)[C@H](Cc2c[nH]c3ccccc23)NC(=O)[C@H](Cc2c[nH]c3ccccc23)NC(=O)[C@H](CCCNC(=N)N)NC1=O [cW2[Fluos]] (cyclo(RRRWWK(6FAM)))	>100 µM	>100 µM	19.28 min	9%				
N=C(N)NCCC[C@@H]1NC(=O)[C@H](CCCCN)NC(=O)[C@H](Cc2c[nH]c3ccccc23)NC(=O)[C@H](Cc2ccccc2)NC(=O)[C@H](Cc2c[nH]c3ccccc23)NC(=O)[C@H](CCCCN)NC1=O [cKRK] (cyclo(KRKWFW))	12 µM (≈ 11.2 µg/mL)	25 µM (≈ 23.3 µg/mL)	17.27 min	2%				
NCCCC[C@@H]1NC(=O)[C@H](CCCCN)NC(=O)[C@H](Cc2c[nH]c3ccccc23)NC(=O)[C@H](Cc2ccccc2)NC(=O)[C@H](Cc2c[nH]c3ccccc23)NC(=O)[C@H](CCCCN)NC1=O [cKKK] (cyclo(KKKWFW))	100 µM (≈ 90.4 µg/mL)	50 µM (≈ 45.2 µg/mL)	17.70 min	8%				
polymyxin B							high membrane permeabilising potential	
N=C(N)NCCC[C@@H]1NC(=O)[C@H](Cc2c[nH]c3ccccc23)NC(=O)[C@H](Cc2ccccc2)NC(=O)[C@H](Cc2c[nH]c3ccccc23)NC(=O)[C@H](CCCCN)NC(=O)[C@H](CCCCN)NC1=O [cRKK] (cyclo(RKKWFW))	50 µM (≈ 46.6 µg/mL)	25 µM (≈ 23.3 µg/mL)	18.38 min	56%				
N=C(N)NCCC[C@@H]1NC(=O)[C@H](CCCCN)NC(=O)[C@H](Cc2c[nH]c3ccccc23)NC(=O)[C@H](CNc2ccc([N+](=O)[O-])c3nonc23)NC(=O)[C@H](Cc2c[nH]c3ccccc23)NC(=O)[C@H](CCCCN)NC1=O [cR2[NBD]] (cyclo(KRKW[Dap](NBD)W))	50 µM (≈ 51.7 µg/mL)	12 µM (≈ 12.4 µg/mL)	17.47 min	26%	No E. coli membrane permeabilisation could be detected			
N=C(N)NCCC[C@@H]1NC(=O)[C@H](CCCCN)NC(=O)[C@H](CCCCN)NC(=O)[C@H](Cc2c[nH]c3ccccc23)NC(=O)[C@H](Cc2ccccc2)NC(=O)[C@H](Cc2c[nH]c3ccccc23)NC1=O [cKKR] (cyclo(KKRWFW))	100 µM (≈ 93.2 µg/mL)	25 µM (≈ 23.3 µg/mL)	17.86 min	3%				
N=C(N)NCCC[C@@H]1NC(=O)[C@H](CCCNC(=N)N)NC(=O)[C@H](Cc2c[nH]c3ccccc23)NC(=O)[C@H](CSCc2cc(=O)oc3cc(O)c(Br)cc23)NC(=O)[C@H](Cc2c[nH]c3ccccc23)NC(=O)[C@H](CCCNC(=N)N)NC1=O [cW[S-Cu]W] (cyclo(RRRWC(X2)W))	25 µM (≈ 29.9 µg/mL)	6 µM (≈ 7.18 µg/mL)	18.91 min	76%	pronounced membrane disruption	slightly higher		
N=C(N)NCCC[C@@H]1NC(=O)[C@H](CCCNC(=N)N)NC(=O)[C@H](Cc2c[nH]c3ccccc23)NC(=O)[C@H](CNc2ccc([N+](=O)[O-])c3nonc23)NC(=O)[C@H](Cc2c[nH]c3ccccc23)NC(=O)[C@H](CCCNC(=N)N)NC1=O [cW[NBD]W] (cyclo(RRRW[Dap](NBD)W))	50 µM (≈ 54.5 µg/mL)	25 µM (≈ 27.3 µg/mL)	17.90 min	76%	pronounced membrane disruption			
N=C(N)NCCC[C@@H]1NC(=O)[C@H](CCCCNC(=O)c2ccc3c(c2)C2(OC3=O)c3ccc(O)cc3Oc3cc(O)ccc32)NC(=O)[C@H](Cc2c[nH]c3ccccc23)NC(=O)[C@H](Cc2c[nH]c3ccccc23)NC(=O)[C@H](Cc2c[nH]c3ccccc23)NC(=O)[C@H](CCCNC(=N)N)NC1=O [cW3[Fluos]] (cyclo(RRWWWK(6FAM)))	>100 µM	>100 µM	22.08 min	2%				
KLALKLALKALKAALKLA-NH2 [KLA-1, helical model peptide …-NH2, positive control in Gram-positive cells]								high membrane permeabilising potential
